Measured values: publication PMC5071672 (2016)

Legend:
[1] = system: duplex-[(dAdT)12·(dAdT)12] (DNA, duplex) ATATATATATATATATATATATAT; experiment: UV/visible titration; conditions: 100 mM KCl; 25 mM MOPS, 1 mM EDTA, pH 7.1, 20 °C (text: 25 °C); 2 µM ligand; affinity printed as negligible
[2] = system: duplex-[(dGdC)12·(dGdC)12] (DNA, duplex) GCGCGCGCGCGCGCGCGCGCGCGC; experiment: ITC; conditions: 100 mM KCl; 25 mM MOPS, 1 mM EDTA, pH 7.1, 25 °C; site 1 of 2; ill-defined, SI favours higher value
[3] = system: 22AG (DNA, G4) AGGGTTAGGGTTAGGGTTAGGG; experiment: UV/visible titration; conditions: 100 mM KCl, 25 mM MOPS, 1 mM EDTA, pH 7.1, 20 °C (text: 25 °C), apparent, per site, MIS model
[4] = system: duplex-[(dAdT)12·(dAdT)12] (DNA, duplex) ATATATATATATATATATATATAT; experiment: ITC; conditions: 100 mM KCl; 25 mM MOPS, 1 mM EDTA, pH 7.1, 25 °C; too weak to be analysed
[5] = system: duplex-[(dGdC)12·(dGdC)12] (DNA, duplex) GCGCGCGCGCGCGCGCGCGCGCGC; experiment: fluorescence titration; conditions: 100 mM KCl, 25 mM MOPS, 1 mM EDTA, pH 7.1, 20 °C (text: 25 °C), apparent, per site, MIS model
[6] = system: 22AG (DNA, G4) AGGGTTAGGGTTAGGGTTAGGG; experiment: ITC; conditions: 100 mM KCl; 25 mM MOPS, 1 mM EDTA, pH 7.1, 25 °C; site 1 of 2
[7] = system: duplex-[(dAdT)12·(dAdT)12] (DNA, duplex) ATATATATATATATATATATATAT; experiment: fluorescence titration; conditions: 100 mM KCl; 25 mM MOPS, 1 mM EDTA, pH 7.1, 20 °C (text: 25 °C); 2 µM ligand; affinity printed as negligible
[8] = system: 22AG (DNA, G4) AGGGTTAGGGTTAGGGTTAGGG; experiment: fluorescence titration; conditions: 100 mM KCl, 25 mM MOPS, 1 mM EDTA, pH 7.1, 20 °C (text: 25 °C), apparent, per site, MIS model
[9] = system: duplex-[(dGdC)12·(dGdC)12] (DNA, duplex) GCGCGCGCGCGCGCGCGCGCGCGC; experiment: UV/visible titration; conditions: 100 mM KCl, 25 mM MOPS, 1 mM EDTA, pH 7.1, 20 °C (text: 25 °C), apparent, per site, MIS model
[10] = system: c-myc (DNA, G4) TGAGGGTGGGTAGGGTGGGTAA; experiment: UV/visible titration; conditions: 100 mM KCl, 25 mM MOPS, 1 mM EDTA, pH 7.1, 20 °C (text: 25 °C), apparent, per site, MIS model
[11] = system: c-myc (DNA, G4) TGAGGGTGGGTAGGGTGGGTAA; experiment: fluorescence titration; conditions: 100 mM KCl, 25 mM MOPS, 1 mM EDTA, pH 7.1, 20 °C (text: 25 °C), apparent, per site, MIS model
[12] = system: c-myc (DNA, G4) TGAGGGTGGGTAGGGTGGGTAA; experiment: ITC; conditions: 100 mM KCl; 25 mM MOPS, 1 mM EDTA, pH 7.1, 25 °C; site 1 of 2; nB restricted to 2

- binding [1]: weak
- K A [2]: 1.2×10^5 (<8×10^6) M^-1
- K b [3]: (8.4±2.2) × 10^6 M^-1
- binding [4]: weak
- K b [5]: (2.6±0.7) × 10^6 M^-1
- K A [6]: 3.8×10^6 (<36×10^6) M^-1
- binding [7]: weak
- K b [8]: (1.2±0.2) × 10^6 M^-1
- K b [9]: (2.6±0.9) × 10^6 M^-1
- K b [10]: (23.8±7.3) × 10^6 M^-1
- K b [11]: (23.1±5.9) × 10^6 M^-1
- K A [12]: 1.3×10^7 (>0.4×10^7) M^-1
Compound: C[n+]1cccc(-c2cc3c4cc(-c5ccc[n+](C)c5)c5nc(C(F)(F)C(F)(F)C(F)(F)F)nc6c(-c7ccc[n+](C)c7)cc(c7cc(-c8ccc[n+](C)c8)c8nc(C(F)(F)C(F)(F)C(F)(F)F)nc2c8c37)c4c56)c1
